The source of these data is patent publication US10548313B2, “Acetyl-CoA carboxylase modulators” (Monsanto Technology LLC, priority 2013, dated 2020).

For this assay, the target named is Ustilago maydis acetyl CoA carboxylase (ACCase) (Mycosarcoma maydis (Ustilago maydis), UniProt A0A0D1DYD5). The assay is described as follows: ACCase enzymatic assay (coupled PK/LDH, NADH OD340). It counts as biochemical. Here is the method: Ustilago maydis acetyl CoA carboxylase (ACCase) was cloned, expressed, and purified as described (Weatherly et al, Biochem. J., 2004) and the test compounds were tested in a 96-well plate format. Primary in vitro screening consisted of obtaining dose response data at 100, 33, 10, and 1 μM inhibitor. Actives in the primary screen were re-tested to establish IC50 values.
Direct detection of the conversion of acetyl CoA to malonyl CoA by ACCase was not feasible, but during this process ATP is converted to ADP which allowed for detection through a standard reaction coupling with ADP recycling to the oxidation of NADH. Thus, ACCase activity was measured via kinetic OD340 measurements of the conversion of NADH to NAD in a coupled reaction involving the conversion of phosphoenolpyruvate (PEP) to lactate.
The complete 200 ul reaction mixture contained 52.5 mM HEPES (pH8), 2.625 mM MgCl2, 1 mM ATP, 0.525 mM DTT, 11 mM NaHCO3, 1% DMSO with or without inhibitor, 1× pyruvate kinase/lactate dehydrogenase (PK/LDH), 0.3 mM NADH, 0.5 mM PEP, and 5 μg ACCase. The reactions were incubated at 30° C. for 10 minutes and then initiated by the addition of 0.33 mM acetyl CoA. The initiated reactions were read immediately via plate reader at OD340 and kinetic readings were acquired every 20 s for 15 minutes while keeping the temperature at 30° C.
A slope of the kinetic curve was determined by using the 2 to 7 minute data which was then calculated as percent inhibition relative to the no inhibitor control.
The primary screens were conducted in duplicate and the IC50's conducted in triplicate. Averages were reported along with standard deviation calculation to generate error bars.
Each plate contained its own controls and consisted of a DMSO only control, 5-fold titration series of soraphen from 2 μM to 3.2 nM, and an ADP coupled reaction control.

Setting [1] is: Table 1A, values marked a are a result of two or more experiments, read-out: ACCase Inhibitory Activity IC50.
Where [2] appears, read: Table 1B, racemate vs single enantiomers, read-out: ACCase Inhibitory Activity of Racemic Mixtures and Single Enantiomers IC50.

“And” between values parts separate entries of the source, which are not always exact repeats. Equal entries are not always repeated. Where two headings read alike, the source gives them in different places.

Sequence of Ustilago maydis acetyl CoA carboxylase (ACCase) (A0A0D1DYD5 1-2185): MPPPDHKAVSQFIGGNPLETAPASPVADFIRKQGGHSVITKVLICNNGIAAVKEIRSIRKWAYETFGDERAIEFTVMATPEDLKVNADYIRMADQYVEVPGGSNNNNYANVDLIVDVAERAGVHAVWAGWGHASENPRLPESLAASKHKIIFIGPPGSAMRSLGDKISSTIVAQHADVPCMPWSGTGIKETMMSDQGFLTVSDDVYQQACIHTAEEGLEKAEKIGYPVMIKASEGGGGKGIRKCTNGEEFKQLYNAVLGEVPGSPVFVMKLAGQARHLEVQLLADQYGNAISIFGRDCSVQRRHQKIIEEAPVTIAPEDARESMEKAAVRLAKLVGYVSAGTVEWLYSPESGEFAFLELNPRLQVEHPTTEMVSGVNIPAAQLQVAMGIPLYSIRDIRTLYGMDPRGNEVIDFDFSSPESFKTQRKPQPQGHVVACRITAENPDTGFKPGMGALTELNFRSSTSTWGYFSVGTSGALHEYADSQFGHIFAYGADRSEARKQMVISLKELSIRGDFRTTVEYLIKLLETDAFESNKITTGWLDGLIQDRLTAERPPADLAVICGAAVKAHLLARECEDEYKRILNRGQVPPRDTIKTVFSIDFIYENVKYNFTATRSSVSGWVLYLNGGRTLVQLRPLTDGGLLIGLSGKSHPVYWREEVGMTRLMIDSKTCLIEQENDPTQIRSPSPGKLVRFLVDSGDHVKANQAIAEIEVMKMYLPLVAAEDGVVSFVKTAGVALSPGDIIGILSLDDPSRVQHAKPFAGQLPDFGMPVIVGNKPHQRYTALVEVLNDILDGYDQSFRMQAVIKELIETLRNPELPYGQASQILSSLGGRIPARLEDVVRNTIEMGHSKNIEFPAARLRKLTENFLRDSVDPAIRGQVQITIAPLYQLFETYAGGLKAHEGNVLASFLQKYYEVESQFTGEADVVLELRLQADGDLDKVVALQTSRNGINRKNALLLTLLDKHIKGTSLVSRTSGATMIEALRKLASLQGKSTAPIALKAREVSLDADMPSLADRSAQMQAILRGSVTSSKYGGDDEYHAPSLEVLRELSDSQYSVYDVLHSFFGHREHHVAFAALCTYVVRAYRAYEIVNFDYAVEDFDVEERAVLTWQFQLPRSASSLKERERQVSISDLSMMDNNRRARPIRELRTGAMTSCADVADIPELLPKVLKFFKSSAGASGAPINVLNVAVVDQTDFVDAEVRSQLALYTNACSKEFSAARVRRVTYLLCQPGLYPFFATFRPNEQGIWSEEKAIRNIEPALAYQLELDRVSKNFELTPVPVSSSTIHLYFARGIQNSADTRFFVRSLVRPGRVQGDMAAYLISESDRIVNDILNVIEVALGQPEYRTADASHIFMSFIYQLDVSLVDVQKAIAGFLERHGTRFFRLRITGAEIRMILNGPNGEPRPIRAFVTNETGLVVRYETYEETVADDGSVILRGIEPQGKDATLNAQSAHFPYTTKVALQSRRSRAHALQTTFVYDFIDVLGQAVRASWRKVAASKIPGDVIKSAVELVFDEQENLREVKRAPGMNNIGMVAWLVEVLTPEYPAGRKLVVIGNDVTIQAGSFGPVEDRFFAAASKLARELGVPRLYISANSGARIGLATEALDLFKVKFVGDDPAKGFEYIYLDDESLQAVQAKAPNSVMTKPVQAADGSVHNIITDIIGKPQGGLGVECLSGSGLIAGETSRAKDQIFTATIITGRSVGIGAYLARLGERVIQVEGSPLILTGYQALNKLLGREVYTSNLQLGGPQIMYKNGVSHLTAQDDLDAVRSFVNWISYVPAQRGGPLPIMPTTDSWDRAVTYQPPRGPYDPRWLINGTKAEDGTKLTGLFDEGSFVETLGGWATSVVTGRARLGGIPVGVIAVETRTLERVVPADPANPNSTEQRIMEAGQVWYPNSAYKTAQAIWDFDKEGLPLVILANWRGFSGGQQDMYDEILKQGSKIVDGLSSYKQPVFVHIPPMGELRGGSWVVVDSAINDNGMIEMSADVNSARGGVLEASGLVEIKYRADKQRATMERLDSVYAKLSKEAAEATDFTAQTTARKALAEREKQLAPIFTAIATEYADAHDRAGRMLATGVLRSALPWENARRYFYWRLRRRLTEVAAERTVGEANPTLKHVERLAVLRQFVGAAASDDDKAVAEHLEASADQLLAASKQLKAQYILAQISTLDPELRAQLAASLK

With `N#Cc1c(-c2cccs2)cc(-c2ccco2)nc1SC(C(=O)O)c1ccccc1` (stereo not shown) [Formula Ia-xxiv, 2-((3-cyano-6-(furan-2-yl)-4-(thiophen-2-yl)pyridin-2-yl)thio)-2-phenylacetic acid], the IC50 – broadly, the concentration at which inhibition is half-maximal – under setting [1] worked out at 958 nM.

For the molecule `CO[C@H]1CCCC[C@@H](c2ccccc2)OC(=O)[C@@H](C)[C@@]2(O)O[C@H]([C@@H](C)[C@H](O)[C@H]2OC)[C@@H](C)/C=C/[C@H]1OC` [Soraphen, reference compound], under setting [1], the IC50 is 45.8 nM.

Take `N#Cc1c(C(F)(F)F)cc(-c2cccs2)nc1SC(C(=O)O)c1ccccc1` (single isomer, unassigned) [Formula Ia-ii-e1, 2-((3-cyano-6-(thiophen-2-yl)-4-(trifluoromethyl)-pyridin-2-yl)thio)-2-phenylacetic acid]: the IC50 under setting [2] came out at 12900 nM. On to `N#Cc1c(SC(C(=O)O)c2ccccc2)nc2c(c1-c1ccccc1)CCCC2` (stereo not shown) [Formula Ia-xvii, 2-((3-cyano-4-phenyl-5,6,7,8-tetrahydroquinolin-2-yl)thio)-2-phenylacetic acid], for which the IC50 under setting [1] was found to be 906 nM.

As for `CCC(Sc1nc(-c2cccs2)cc(-c2ccc(OC)cc2)c1C#N)C(=O)O` (stereo not shown) [Formula Ia-xxix, 2-((3-cyano-4-(4-methoxyphenyl)-6-(thiophen-2-yl)pyridin-2-yl)thio)butanoic acid], the IC50 under setting [1] worked out at 113 nM.

As to `N#Cc1c(-c2cccs2)cc(-c2cccs2)nc1SC(C(=O)O)c1ccccc1` (single isomer, unassigned) [Formula Ia-iii-e2, 2-((3-cyano-4,6-di(thiophen-2-yl)pyridin-2-yl)thio)-2-phenylacetic acid], the IC50 under setting [2] came out at 2390 nM. Turning to `COc1ccc(-c2cc(-c3cccs3)nc(SC(C(=O)NO)c3ccccc3)c2C#N)cc1` (stereo not shown) [Formula Ib-iii, 2-((3-cyano-4-(4-methoxyphenyl)-6-(thiophen-2-yl)pyridin-2-yl)thio)-N-hydroxy-2-phenylacetamide], the IC50 under setting [1] came out at 882 nM.

For `N#Cc1c(SC(C(N)=O)c2ccccc2)nc2c(c1-c1cccs1)CCCC2` (stereo not shown) [Formula Ib-i, 2-((3-cyano-4-(thiophen-2-yl)-5,6,7,8-tetrahydroquinolin-2-yl)thio)-2-phenylacetamide], the IC50 under setting [1] turned out to be 712 nM. On to `CN1CCCc2c1nc(SC(C(=O)O)c1ccccc1)c(C#N)c2-c1cccs1` (stereo not shown) [Formula Ia-vi, 2-((3-cyano-8-methyl-4-(thiophen-2-yl)-5,6,7,8-tetrahydro-1,8-naphthyridin-2-yl)thio)-2-phenylacetic acid], for which the IC50 under setting [1] amounted to 3550 nM. As to `N#Cc1c(-c2cccs2)cc(-c2cccs2)nc1SC(C(=O)O)c1ccccc1` (single isomer, unassigned) [Formula Ia-iii-e1, 2-((3-cyano-4,6-di(thiophen-2-yl)pyridin-2-yl)thio)-2-phenylacetic acid], the IC50 under setting [2] was 547 nM. As for `N#Cc1c(SC(CO)c2ccccc2)nc2c(c1-c1cccs1)CCCC2` (stereo not shown) [Formula IIb-ii, 2-((2-hydroxy-1-phenylethyl)thio)-4-(thiophen-2-yl)-5,6,7,8-tetrahydroquinoline-3-carbonitrile], the IC50 under setting [1] worked out at 4090 nM. On the same count and under the same terms, in the case of `COc1ccc(-c2cc(-c3cccs3)nc(SC(C(N)=O)c3ccccc3)c2C#N)cc1` (stereo not shown) [Formula Ib-ii, 2-((3-cyano-4-(4-methoxyphenyl)-6-(thiophen-2-yl)pyridin-2-yl)thio)-2-phenylacetamide] it was above 33000 nM. In the case of `N#Cc1c(-c2ccco2)cc(-c2cccs2)nc1SC(CO)c1ccccc1` (stereo not shown) [Formula IIb-iv, 4-(furan-2-yl)-2-((2-hydroxy-1-phenylethyl)thio)-6-(thiophen-2-yl)nicotinonitrile], the IC50 under setting [1] was 2180 nM. On the same count and under the same terms, in the case of `COc1ccc(-c2cc(-c3ccco3)nc(SC(C(=O)O)c3ccccc3)c2C#N)cc1` (stereo not shown) [Formula Ia-xx, 2-((3-cyano-6-(furan-2-yl)-4-(4-methoxyphenyl)pyridin-2-yl)thio)-2-phenylacetic acid] it was 345 nM. For the molecule `COc1ccc(-c2cc(-c3cccs3)nc(SC(CO)c3ccccc3)c2C#N)cc1` (stereo not shown) [Formula IIb-i, 2-((2-hydroxy-1-phenylethyl)thio)-4-(4-methoxyphenyl)-6-(thiophen-2-yl)nicotinonitrile], the IC50 under setting [1] is 625 nM.

In the case of “2-((3-cyano-4-(thiophen-2-yl)-5,6,7,8-tetrahydroquinolin-2-yl)oxy)-2-phenylacetic acid [Formula Ia-xxvii]”, under setting [1], the IC50 came to 249 nM.

Turning to `Cc1cc(C(F)(F)F)c(C#N)c(SC(C(=O)O)c2ccccc2)n1` (stereo not shown) [Formula Ia-xvi, 2-((3-cyano-6-methyl-4-(trifluoromethyl)pyridin-2-yl)thio)-2-phenylacetic acid], the IC50 under setting [1] is 7730 nM. For `COc1ccc(-c2c(C#N)c(SC(C(=O)O)c3ccccc3)nc3c2CCCC3)cc1` (stereo not shown) [Formula Ia-xxvi, 2-((3-cyano-4-(4-methoxyphenyl)-5,6,7,8-tetrahydroquinolin-2-yl)thio)-2-phenylacetic acid], under setting [1], the IC50 is 560 nM. On to `COc1ccc(-c2cc(-c3cccs3)nc(SC(C(=O)O)c3ccccc3)c2C#N)cc1` (single isomer, unassigned) [Formula Ia-xiv-e1, 2-((3-cyano-4-(4-methoxyphenyl)-6-(thiophen-2-yl)pyridin-2-yl)thio)-2-phenylacetic acid], for which the IC50 under setting [2] was 115 nM and 129 nM. As to `N#Cc1c(-c2ccco2)cc(-c2ccco2)nc1SC(C(=O)O)c1ccccc1` (stereo not shown) [Formula Ia-xxv, 2-((3-cyano-4,6-di(furan-2-yl)pyridin-2-yl)thio)-2-phenylacetic acid], the IC50 under setting [1] was determined as 4040 nM. With `Cc1ccc(-c2cc(-c3cccs3)nc(SC(C(=O)O)c3ccccc3)c2C#N)cc1` (stereo not shown) [Formula Ia-xxi, 2-((3-cyano-6-(thiophen-2-yl)-4-(p-tolyl)pyridin-2-yl)thio)-2-phenylacetic acid], the IC50 under setting [1] was 353 nM. In the case of `COc1ccc(-c2cc(SC(C(=O)O)c3ccccc3)nc(-c3cccs3)c2)cc1` (stereo not shown) [Formula Ia-xix, 2-((4-(4-methoxyphenyl)-6-(thiophen-2-yl)pyridin-2-yl)thio)-2-phenylacetic acid], the IC50 under setting [1] turned out to be 9060 nM. Take `N#Cc1c(-c2ccc(F)cc2)cc(-c2cccs2)nc1SC(C(=O)O)c1ccccc1` (stereo not shown) [Formula Ia-xxii, 2-((3-cyano-4-(4-fluorophenyl)-6-(thiophen-2-yl)pyridin-2-yl)thio)-2-phenylacetic acid]: the IC50 under setting [1] worked out at 563 nM. With `COc1ccc(-c2cc(-c3cccs3)nc(SC(C(=O)O)c3ccccc3)c2C#N)cc1` (single isomer, unassigned) [Formula Ia-xiv-e2, 2-((3-cyano-4-(4-methoxyphenyl)-6-(thiophen-2-yl)pyridin-2-yl)thio)-2-phenylacetic acid], the concentration for half-maximal inhibition (IC50) under setting [2] is 440 nM and 523 nM. In the case of `N#Cc1c(-c2ccc(Br)cc2)cc(-c2cccs2)nc1SC(C(=O)O)c1ccccc1` (stereo not shown) [Formula Ia-xxiii, 2-((4-(4-bromophenyl)-3-cyano-6-(thiophen-2-yl)pyridin-2-yl)thio)-2-phenylacetic acid], under setting [1], the IC50 is 212 nM.
